Measurements as given in the supplement of paper PMC10307832.

Assays:
Assay in all cases: relative viability (nuclei count vs DMSO), 5 days (fraction); higher = more cells survive
[1] = tested on: NCI-H1792
Outline: (§1)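 Lung cancer cell lines were pin-tool dosed in 1536-well plates on the day after seeding, with either a lone drug or a fixed anchor-drug dose plus five library-drug doses (not always all listed) in √10 steps. Nuclei were counted on 4× images after 5 days. Relative viability is the ratio of treated-well to vehicle-well nuclei counts, with each value a median of duplicate plates.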

[2] = tested on: CAL-12T
Outline: as §1

[3] = tested on: H3255
Outline: as §1

[4] = tested on: NCI-H23
Outline: as §1

[5] = tested on: NCI-H2087
Outline: as §1

[6] = tested on: NCI-H1395
Outline: as §1

[7] = tested on: A-427
Outline: as §1

[8] = tested on: NCI-H322M
Outline: as §1

[9] = tested on: LK-2
Outline: as §1

[10] = tested on: NCI-H1355
Outline: as §1

[11] = tested on: NCI-H1666
Outline: as §1

[12] = tested on: NCI-H1651
Outline: as §1

[13] = tested on: LCLC-103H
Outline: as §1

[14] = tested on: NCI-H838
Outline: as §1

[15] = tested on: ABC-1
Outline: as §1

[16] = tested on: NCI-H358
Outline: as §1

[17] = tested on: PC-14
Outline: as §1

[18] = tested on: NCI-H2085
Outline: as §1

COCC1(CO)C(=O)C2CCN1CC2 (stereo not drawn) [PRIMA-1MET] + NC(=O)Nc1cc(-c2cccc(F)c2)sc1C(=O)N[C@H]1CCCNC1 [AZD7762] (partner 0.2 µM)
relative viability ([1]; first compound 0.2 µM): 0.569
relative viability ([1]; first compound 6.325 µM): 0.907
relative viability ([1]; first compound 20 µM): 0.429
relative viability ([2]; first compound 0.2 µM): 0.603
relative viability ([2]; first compound 2 µM): 0.6
relative viability ([2]; first compound 6.325 µM): 0.777
relative viability ([2]; first compound 20 µM): 0.601
relative viability ([3]; first compound 0.2 µM): 0.945
relative viability ([3]; first compound 0.6325 µM): 0.873
relative viability ([3]; first compound 2 µM): 0.955
relative viability ([3]; first compound 6.325 µM): 1.06
relative viability ([3]; first compound 20 µM): 0.775
relative viability ([4]; first compound 0.2 µM): 0.212
relative viability ([4]; first compound 0.6325 µM): 0.225
relative viability ([4]; first compound 2 µM): 0.231
relative viability ([4]; first compound 6.325 µM): 0.209
relative viability ([4]; first compound 20 µM): 0.102
relative viability ([5]; first compound 0.6325 µM): 1.35
relative viability ([5]; first compound 2 µM): 1.29
relative viability ([5]; first compound 6.325 µM): 1.25
relative viability ([5]; first compound 20 µM): 0.938
relative viability ([6]; first compound 0.2 µM): 0.376
relative viability ([6]; first compound 2 µM): 0.385
relative viability ([6]; first compound 6.325 µM): 0.38
relative viability ([6]; first compound 20 µM): 0.129
relative viability ([7]; first compound 0.2 µM): 0.741
relative viability ([7]; first compound 0.6325 µM): 0.795
relative viability ([7]; first compound 2 µM): 0.756
relative viability ([7]; first compound 6.325 µM): 0.711
relative viability ([7]; first compound 20 µM): 0.557
relative viability ([8]; first compound 0.2 µM): 0.657
relative viability ([8]; first compound 0.6325 µM): 0.558
relative viability ([8]; first compound 6.325 µM): 0.59
relative viability ([8]; first compound 20 µM): 0.406
relative viability ([9]; first compound 0.2 µM): 0.469
relative viability ([9]; first compound 0.6325 µM): 0.405
relative viability ([9]; first compound 2 µM): 0.182
relative viability ([9]; first compound 6.325 µM): 0.124
relative viability ([9]; first compound 20 µM): 0.0604
relative viability ([10]; first compound 0.2 µM): 0.887
relative viability ([10]; first compound 0.6325 µM): 0.61
relative viability ([10]; first compound 2 µM): 0.702
relative viability ([10]; first compound 6.325 µM): 0.874
relative viability ([10]; first compound 20 µM): 0.72
relative viability ([11]; first compound 0.2 µM): 0.841
relative viability ([11]; first compound 0.6325 µM): 0.688
relative viability ([11]; first compound 2 µM): 0.798
relative viability ([11]; first compound 6.325 µM): 0.817
relative viability ([11]; first compound 20 µM): 0.728
relative viability ([12]; first compound 0.2 µM): 0.442
relative viability ([12]; first compound 0.6325 µM): 0.443
relative viability ([12]; first compound 2 µM): 0.478
relative viability ([12]; first compound 6.325 µM): 0.513
relative viability ([12]; first compound 20 µM): 0.592
relative viability ([13]; first compound 0.2 µM): 0.889
relative viability ([13]; first compound 0.6325 µM): 0.732
relative viability ([13]; first compound 2 µM): 0.673
relative viability ([13]; first compound 6.325 µM): 0.768
relative viability ([13]; first compound 20 µM): 0.756
relative viability ([14]; first compound 0.2 µM): 0.989
relative viability ([14]; first compound 0.6325 µM): 0.88
relative viability ([14]; first compound 2 µM): 0.9
relative viability ([14]; first compound 6.325 µM): 1.05
relative viability ([14]; first compound 20 µM): 0.849
relative viability ([15]; first compound 0.2 µM): 0.97
relative viability ([15]; first compound 0.6325 µM): 0.624
relative viability ([15]; first compound 2 µM): 0.952
relative viability ([15]; first compound 6.325 µM): 0.775
relative viability ([15]; first compound 20 µM): 0.376
relative viability ([16]; first compound 0.2 µM): 0.592
relative viability ([16]; first compound 2 µM): 0.489
relative viability ([16]; first compound 6.325 µM): 0.484
relative viability ([16]; first compound 20 µM): 0.0265
relative viability ([17]; first compound 0.2 µM): 0.407
relative viability ([17]; first compound 0.6325 µM): 0.386
relative viability ([17]; first compound 2 µM): 0.319
relative viability ([17]; first compound 6.325 µM): 0.387
relative viability ([17]; first compound 20 µM): 0.178
relative viability ([18]; first compound 0.2 µM): 1.09
relative viability ([18]; first compound 0.6325 µM): 1.1
relative viability ([18]; first compound 2 µM): 0.588
relative viability ([18]; first compound 6.325 µM): 0.942
relative viability ([18]; first compound 20 µM): 0.176
